# Columns and labels:
# [1] = tested on: patients with non-small cell lung cancer (NSCLC); assay: Phase II clinical trial POPLAR (NCT01903993), overall survival by DC gene expression; type: in vivo, human
# Excerpt: Further to Example 3, we analyzed 193 patients with non-small cell lung cancer (NSCLC) previously treated, then received atezolizumab or docetaxel in a Phase II clinical trial POPLAR. This study is registered with ClinicalTrials.gov, number NCT01903993. POPLAR is a multicentre, randomised, open-label phase II trial, done at 61 academic medical centers and community oncology practices across 13 countries in Europe and North America. The study was done in full accordance with the guidelines for Good Clinical Practice and the Declaration of Helsinki. Protocol (and modification) approval was obtained from an independent ethics committee for each site (Fehrenbacher L, et. Al., Lancet 2016). Among those patients with squamous or non-squamous NSCLC, 96 received Docetaxel, and 92 received atezolizumab, and the rest of 5 left untreated (Table 1).
# Tumor specimens at baseline were archived and taken for gene expression profiling performed by RNA Sequencing (RNA-Seq). Based on literature (Merad M. et al, Ann. Rev. Immunol. 2013), we selected a list of genes consisting of XCR1, IRF8, BATF3, and FLT3, which are associated with human dendritic cell phenotypes and development with cross-presenting specialization. Normalized read counts of each selected gene across the whole cohort were divided at medium expression level for the higher expression ones (+) and lower/no expression ones (−). Using in-house R scripts the two defined subgroups were plotted against the Kaplan-Meier survival curves. In addition, Cox-regression analysis was used to calculate the hazard ratio (HR) between the two patient groups divided based on positive and negative gene expression.
# We also investigated the impact of multiple genes involved in human DC development and function (XCR1, BATF3, FLT3, and IRF8) by defining a cumulative DC gene score (DC score) reflecting the cumulative expression of these marker genes. Each gene's expression is first standardized by a z-score:
# where μ and σ are estimated in the entire cohort or in the selected subgroups. After the standardization step, these standardized z-score values are averaged across genes within each patient. The cohort was corrected for the smoking status, ECOG and sex of patient. Then the score was plotted against the Kaplan-Meier survival curves.
# [2] = tested on: patients with renal cell carcinoma; assay: Phase I clinical trial (NCT01375842), response and survival by DC gene expression; type: in vivo, human
# Excerpt: We hypothesized that patients with DC abundance may respond to PD-L1 blockade leading to beneficial effect in patients who received the treatment. We analyzed 56 patients with renal cell carcinoma who received Atezolizumab in a Phase I clinical trial (NCT01375842) (www.clinicaltrials.gov). This study was sponsored by Genentech Inc., a member of the Roche Group, which provided the study drug. The protocol and its amendments were approved by the relevant institutional review boards or ethics committees, and all participants provided written informed consent. This study was conducted in accordance with the Declaration of Helsinki and International Conference on Harmonization Guidelines for Good Clinical Practice. In total, 56 patients were analyzed. Based on the “Best Confirmed Overall Response by the Investigator” we observed 6 responders (CR=1; PR=5) and 47 non-responder (PD=21; SD=26) as well as 3 patients without known information (FIG. 7).
# Tumor specimens at baseline were archived and taken for gene expression profiling performed by RNA Sequencing (RNA-Seq). Based on literature (Merad, ann rev immunol 2013), we selected a list of genes consisting of XCR1, IRF8, BATF3 and FLT3, which are associated with human dendritic cell development with cross-presenting specialization. The log 2 RPKM expression values of each selected gene across the whole cohort were divided at medium expression level for the higher expression ones (+) and lower/no expression ones (−). Using in-house R scripts the two defined subgroups were plotted against the Kaplan-Meier survival curves. […] The medium survival between patients with higher expression versus lower/no expression were separated for at least 15.6 months or longer (FIG. 9).
# As several genes linked to human dendritic cell development were associated with the survival advantages, we investigated the impact of multiple genes involved in human DC development and function by defining a cumulative DC gene score (DC score) reflecting the cumulative expression of these marker genes. Each gene's expression is first standardized by a z-score: z=(x−μ)/σ,
# where μ and σ are estimated in the entire cohort or in the selected subgroups. After the standardization step, these standardized z-score values are averaged across genes within each patient. The RCC cohort was corrected for the sex of patient as well as the Stage at Initial Diagnosis.
# [3] = tested on: MC38 cells (colorectal cancer cell lines); assay: MC38 tumor model in CD11c-DTR mice with or without DC depletion by DT; type: in vivo; conditions: MC38 s.c.; DT 100 ng at day 6; anti-PD-L1 Ab 10 mg/kg from day 7, weekly; FIG. 6B
# Procedure: To further study the contribution of DCs by PD-L1 blockade in mediating anti-tumor immunity, we obtained the CD11c-DTR mice from the Jackson laboratory (B6.FVB-Tg(Itgax-DTR/EGFP)57Lan/J, Cat. No. 004509). […]. When tumor is palpable at day 6, mice were treated with 100 ng of DT (Sigma-Aldrich) or left untreated. At day 7, a anti-PD-L1 Ab (10 mg/kg, murine IgG1, clone 6E11, Genentech) was given to mice, followed by weekly injection (FIG. 6A). […] Our data support the concept that DCs are needed for PD-L1 Ab to achieve its maximum anti-tumor efficacy.
# [4] = tested on: human DCs; assay: Maturation of monocyte-derived DCs by LPS, PD-1/PD-L1 staining by flow cytometry; type: cell-based; conditions: LPS 10 ng/mL, FIGS. 2A-2B
# Procedure: To address the potential regulation of PD-1 and its ligands on human DCs, monocyte-derived DCs were generated using the classical method. Briefly, Peripheral Blood Mononuclear Cells (PBMCs) were isolated from buffy-coats (Blutspende, Schlieren) from healthy human donors, using Ficoll-Paque™ Plus (GE Healthcare, #17-1440-03) density gradient. Rings of PBMCs were collected and washed with PBS two times by centrifugation (5′ at 763 g; 5′ at 600 g). A lysis was conducted using 10 mL of BD Pharm Lyse™ (BD Biosciences, #555899) diluted at 1× with sterile water and incubated 1,5 minute at room temperature. Two washes with Phosphate-buffered saline 1× (PBS; Gibco® by live technologies™, #20012-019) were conducted by centrifugation (8′ at 135 g). Cells number and quality were evaluated using Cell counter (Beckman Coulter®). Separate unrelated donors were used for each independent experiment. Monocytes were isolated from fresh PBMCs by negative selection using Human monocyte enrichment kit (StemCell, #19059) in MACs buffer (1450 mL Automacs™ Rinsing solution, Miltenyi #130-091-222; and 75 mL MACS BSA stock Solution, Miltenyi #130-091-376) according to the manufacturer's instructions. […] The cells were then stained with anti-PD-1-PE-Cy7 and anti-PD-L1-APC Abs (BioLegend®; #329917, #329707), and measured by flow cytometry (BD). […]
# [5] = NSCLC, XCR1 divided at medium expression level
compound,measurement,setting,value
CC(=O)O[C@@]12CO[C@@H]1C[C@H](O)[C@@]1(C)C(=O)[C@H](O)C3=C(C)[C@@H](OC(=O)[C@H](O)[C@@H](NC(=O)OC(C)(C)C)c4ccccc4)C[C@@](O)([C@@H](OC(=O)c4ccccc4)[C@H]21)C3(C)C [docetaxel],correlation of XCR1 expression to survival,[1]; NSCLC,no correlation
same,correlation of DC genes expression to survival,[1]; PD-L1+ patients,no correlation
atezolizumab,CR,[2]; 56 patients analyzed,1
same,PD,[2]; 56 patients analyzed,21
same,PR,[2]; 56 patients analyzed,5
same,non-responder,[2]; 56 patients analyzed,47
same,responders (Best Confirmed Overall Response by the Investigator),"[2]; 56 patients analyzed, FIG. 7",6
same,"HR, higher versus lower DC score","[2]; RCC, p=0.03, FIG. 10",0.38
same,"medium survival, patients with higher DC score","[2]; cumulative DC gene score (XCR1, IRF8, BATF3, FLT3), FIG. 10",without reaching medium survival
same,separation of medium survival between patients with higher expression versus lower/no expression,"[2]; single genes XCR1, IRF8, BATF3, FLT3, FIG. 9",at least 15.6 months
same,"separation of medium OS, higher versus lower/no XCR1 expression",[1]; NSCLC,~7 months
same,"medium overall survival (mOS), patients with higher XCR1 expression",[1]; [5],15.5 month
same,"medium overall survival (mOS), patients with lower/no XCR1 expression",[1]; [5],8.6 month
same,"medium OS, patients with higher DC signature score","[1]; NSCLC, all patients",16.4 months
same,"medium OS, patients with lower/no DC signature expression","[1]; NSCLC, all patients",8.5 months
same,"separation of medium OS, higher versus lower/no DC signature expression","[1]; NSCLC, all patients",7.9 months
same,"HR, higher versus lower DC signature score","[1]; NSCLC, all patients, p=0.04, FIG. 11",0.54
same,"hazard ratio (HR) by Cox-regression analysis, higher versus lower/no XCR1 expression","[1]; NSCLC, p=0.077",0.6
same,"median OS, patients with lower/no expression",[1]; PD-L1+ patients,8.4 months
same,"medium OS, patients with higher DC gene score",[1]; PD-L1+ patients,not reached
same,"HR, higher versus lower DC signature score","[1]; PD-L1+ patients (TC3, TC2, IC3, IC2), p=0.03, FIG. 12",0.25
diphtheria toxin [DT],tumor growth,[3],did not impact the tumor growth
lipopolysaccharide [LPS],PD-1 expression on DCs upon maturation,[4],downregulated
same,PD-L1 expression on DCs upon maturation,[4],upregulated

# Source: US11513122B2, “Predicting response to PD-1 axis inhibitors” (Hoffmann-La Roche Inc., priority 2016, dated 2022)
